The test system of data set [1] is plasma proteins. The data set can be described thus: Plasma protein binding experiment (PPB), H. The data set is classed as in vitro ADME, human. Conditions: 2 μM, 4 hours dialysis. The procedure: (§1) Experimental operation: 995 μL of blank plasma of each genus was taken, 5 μL of working solution of test compound (400 μM) or working solution of warfarin (400 μM) was added, so that the final concentrations of the test compound and warfarin in the plasma sample was 2 μM. The sample was mixed thoroughly. The final concentration of the organic phase DMSO was 0.5%; 50 μL of plasma samples of the test compound and warfarin were pipetted into the sample receiving plate (three parallels), and the corresponding volume of the corresponding blank plasma or buffer was immediately added so that the final volume of each sample well was 100 μL, with a volume ratio of 1:1 for plasma: dialysis buffer, and then 500 μL of stop solution was added to these samples, and these samples would be used as a T0 sample for the recovery and stability determination. […] All samples were analyzed by LC/MS/MS after protein precipitation, and the protein binding rate and recovery rate were calculated by the formula: % Unbound=100*F/T, % Bound=100−% Unbound, % Recovery 100*(F+T) T0 (where F was the peak area ratio of the compound in the dialysate after 4 hours of dialysis; T was the peak area ratio of the compound in the plasma after 4 hours of dialysis, and T0 was the peak area ratio of the compound in the plasma sample at zero time).

The subject of data set [2] is plasma proteins. The data set can be described thus: Plasma protein binding experiment (PPB), M. Conditions: 2 μM, 4 hours dialysis. The data set is classed as in vitro ADME, mouse. The procedure:
as §1

Data set [3] is described as follows: Hepatocyte metabolic stability experiment (HMS), M. The data set is classed as in vitro ADME. As to conditions: mouse, M hepatocytes, read-out: HMS CLint(liver). The procedure: Experimental operations: 198 μL of hepatocyte suspension (0.51×10^6 cells/mL) was added to the preheated incubation plate, and 198 μL of culture medium without hepatocytes was added to T0-MC and T120-MC incubation plates for the culture medium control group, and all incubation plates were pre-incubated for 10 minutes in a 37° C. incubator. Then 2 μL of the working solution of the test and control compounds were added and mixed well, and the incubation plate was immediately put into the plate shaker in the incubator, the rotation speed was adjusted to about 650 rpm, and the timer and the reaction were started. 2 duplicate samples for each compound were prepared at each time point. Incubation conditions: 37° C., saturated humidity, and containing 5% CO2. In the test system, the final concentration of the test compound was 1 μM, the final concentration of the control compound was 3 μM, the final concentration of hepatocytes was 0.5×10^6 cells/mL, and the final concentration of the total organic solvent was 0.96%, of which the final concentration of DMSO was 0.1%. […] All samples were mixed and analyzed by LC-MS/MS method. […]

A short description of data set [4]: Pharmacokinetic evaluation of compounds in mice. The class given is in vivo, CD-1 mice. Conditions: mouse, plasma, CD-1 male mice. The procedure: Experimental purpose: To test the in vivo pharmacokinetic data of compounds in CD-1 mice.
The compound was mixed with the solvent 5% DMSO/5% Solutol/90% H2O, vortexed and sonicated to prepare a 0.5 mg/mL clear solution. CD-1 male mice aged 7 to 10 weeks were selected, and administered the candidate compound solution intravenously. Whole blood was collected for a certain period of time, and plasma was prepared. The drug concentration was analyzed by LC-MS/MS method, and pharmacokinetic parameters were calculated by Phoenix WinNonlin software (Pharsight Company, USA).
The compound was mixed with the solvent 5% DMSO/5% Solutol/90% H2O, vortexed and sonicated to prepare a 0.5 mg/mL clear solution. CD-1 male mice aged 7 to 10 weeks were selected, and administered the candidate compound solution orally. Whole blood was collected for a certain period of time, and plasma was prepared. The drug concentration was analyzed by LC-MS/MS method, and pharmacokinetic parameters were calculated by Phoenix WinNonlin software (Pharsight Company, USA).

The nature of data set [5]: Pharmacokinetic evaluation of compounds in rats. The class given is in vivo. Conditions: rat, plasma, SD rats. How it is done:
Experimental purpose: To test the in vivo pharmacokinetic data of compounds in SD rats.
The compound was mixed with the solvent 5% DMSO/5% Solutol/90% H2O, vortexed and sonicated to prepare a 0.5 mg/mL clear solution. The rats were administered the candidate compound solution intravenously. Whole blood was collected for a certain period of time, and plasma was prepared. The drug concentration was analyzed by LC-MS/MS method, and pharmacokinetic parameters were calculated.
The compound was mixed with the solvent 5% DMSO/5% Solutol/90% H2O, vortexed and sonicated to prepare a 2 mg/mL clear solution. The rats were administered candidate compound solutions orally. Whole blood was collected for a certain period of time, and plasma was prepared. The drug concentration was analyzed by LC-MS/MS method, and pharmacokinetic parameters were calculated.

Setting [6] is: IV, 1.0 mg/kg (002), 1.2 mg/kg (003B).
[7] abbreviates: PO, 2.9 mg/kg (002), 2.85 mg/kg (003B).
Where [8] appears, read: IV, 1.0 mg/kg (002), 0.85 mg/kg (003B).
[9] abbreviates: PO, 9.2 mg/kg (002), 8.4 mg/kg (003B).

SMILES strings stand for the structures.

In the case of `Nc1nccc2c1n(-c1ccc(Oc3ccccc3)cc1)c(=O)n2[C@@H]1CCCN(C(=O)/C=C/CF)C1` [Compound 002], in the data set on plasma proteins [1], the “Unbound PPB” value turned out to be 8.2%. Besides, the “Unbound PPB” value with plasma proteins [2] came out at 4.5%. Moreover, the CLint scaled at 1 μM in data set [3] stood at 702 mL/min/kg. In addition, in data set [4] (setting [6]), the AUC(0-inf) – broadly, total exposure, with the tail of the curve extrapolated – amounted to 0.697 µM·h; the C0 is 4190 nM; the Vd (usually the apparent volume that relates the amount in the body to the concentration in plasma or blood) turned out to be 0.76 L/kg; the clearance (as a rule, the volume of plasma or blood freed of the substance per unit of time) worked out at 49 mL/min/kg. Further, the half-life (as a rule, how long it takes for the measured level to halve) in data set [4] (setting [6]) is 16.8 min. Also, in data set [4] (setting [7]), the AUC(0-inf) came out at 0.83 µM·h; the peak level (Cmax) was 1190 nM; the time to peak (Tmax) (commonly the time from dosing to the highest level) stood at 4.98 min; the bioavailability (commonly dose-corrected exposure relative to a reference, in per cent) came to 39.7%. For the same compound, in data set [4] (setting [7]), the half-life was 21 min. In data set [5] (setting [8]), this compound registered an AUC(0-inf) of 1.32 µM·h, a C0 of 3520 nM, a Vd of 0.7 L/kg and a clearance of 26 mL/min/kg. Besides, in data set [5] (setting [8]), the half-life is 24 min. Besides, in data set [5] (setting [9]), the AUC(0-inf) came to 2.58 µM·h; the Cmax – broadly, the peak of the concentration-time curve – is 1800 nM; the Tmax amounted to 22.8 min; the bioavailability was determined as 18.1%. The compound also had a half-life in data set [5] (setting [9]) of 107 min.

These data come from patent US20240217973A1, “IMIDAZOPYRIDINE COMPOUNDS AND USE THEREOF” (MEDSHINE DISCOVERY INC., priority 2021, published 2024).
